What was measured:
Type in all cases: in vivo
[1] = tested on: sedge, umbrella (small-flower umbrella sedge, Cyperus difformis); test: Test B flooded paddy test, sedge, umbrella; details: 250 g ai/ha, Flood; visually evaluated after 10 to 14 days
Method in brief: (§1)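 Water-applied treatment of 2-leaf plants in pots kept flooded at 3 cm. Visual control rating (0–100) against untreated plants after 10–14 greenhouse days.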

[2] = tested on: palmer amaranth (pigweed, palmer, Amaranthus palmeri); test: Test A postemergence, palmer amaranth; details: 10 days
From the text: (§2) Seeds of plant species selected from barnyardgrass (Echinochloa crus-galli), blackgrass (Alopecurus myosuroides), corn (Zea mays), foxtail, giant (giant foxtail, Setaria faberi), foxtail, green (green foxtail, Setaria viridis), goosegrass (Eleusine indica), kochia (Bassia scoparia), oat, wild (wild oat, Avena fatua), palmer amaranth (pigweed, palmer, Amaranthus palmeri), redroot pigweed (Amaranthus retroflexus), ragweed (common ragweed, Ambrosia artemisiifolia), ryegrass, Italian (Italian ryegrass, Lolium multiflorum), and soybean (Glycine max) were planted into a blend of loam soil and sand and treated preemergence with a directed soil spray using test chemicals formulated in a non-phytotoxic solvent mixture which included a surfactant.
(§3) At the same time, plants selected from these crop and weed species and also wheat (Triticum aestivum), galium (catchweed bedstraw, Galium aparine) and horseweed (Erigeron canadensis) were planted in pots containing the same blend of loam soil and sand and treated with postemergence applications of test chemicals formulated in the same manner. Plants ranged in height from 2 to 10 cm and were in the one- to two-leaf stage for the postemergence treatment. Treated plants and untreated controls were maintained in a greenhouse for 10 days, after which time all treated plants were compared to untreated controls and visually evaluated for injury. Plant response ratings, summarized in Table A, are based on a 0 to 100 scale where 0 is no effect and 100 is complete control. A dash (-) response means no test result.

[3] = tested on: ryegrass, Italian (Italian ryegrass, Lolium multiflorum); test: Test A postemergence, ryegrass, Italian; details: 10 days
Method in brief: (§4)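 Scores reflect visual injury versus untreated controls after 10 days in a greenhouse, on a scale from 0 (none) to 100 (complete control); pre- and postemergence sprays used loam/sand pots, postemergence at the one- to two-leaf stage.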

[4] = tested on: ryegrass, Italian (Italian ryegrass, Lolium multiflorum); test: Test A preemergence, ryegrass, Italian; details: 0 to 100 scale, 10 days
Method in brief: as §4

[5] = tested on: ragweed (common ragweed, Ambrosia artemisiifolia); test: Test A preemergence, ragweed; details: 0 to 100 scale, 10 days
Method in brief: as §4

[6] = tested on: galium (catchweed bedstraw, Galium aparine); test: Test A postemergence, galium; details: 10 days
Method in brief: as §4

[7] = tested on: soybean (Glycine max); test: Test A preemergence, soybean; details: 0 to 100 scale, 10 days
From the text: as §2, §3

[8] = tested on: palmer amaranth (pigweed, palmer, Amaranthus palmeri); test: Test A preemergence, palmer amaranth; details: 0 to 100 scale, 10 days
From the text: as §2, §3

[9] = tested on: ragweed (common ragweed, Ambrosia artemisiifolia); test: Test A postemergence, ragweed; details: 10 days
Method in brief: as §4

[10] = tested on: horseweed (Erigeron canadensis); test: Test A postemergence, horseweed; details: 10 days
From the text: as §2, §3

[11] = tested on: foxtail, giant (giant foxtail, Setaria faberi); test: Test A preemergence, foxtail, giant; details: 0 to 100 scale, 10 days
Method in brief: as §4

[12] = tested on: barnyardgrass (Echinochloa crus-galli); test: Test B flooded paddy test, barnyardgrass; details: 250 g ai/ha, Flood; visually evaluated after 10 to 14 days
Method in brief: as §1

[13] = tested on: corn (Zea mays); test: Test A preemergence, corn; details: 0 to 100 scale, 10 days
From the text: as §2, §3

[14] = tested on: blackgrass (Alopecurus myosuroides); test: Test A preemergence, blackgrass; details: 0 to 100 scale, 10 days
From the text: as §2, §3

[15] = tested on: goosegrass (Eleusine indica); test: Test A preemergence, goosegrass; details: 0 to 100 scale, 10 days
From the text: as §2, §3

[16] = tested on: foxtail, giant (giant foxtail, Setaria faberi); test: Test A postemergence, foxtail, giant; details: 10 days
Method in brief: as §4

[17] = tested on: ducksalad (Heteranthera limosa); test: Test B flooded paddy test, ducksalad; details: 250 g ai/ha, Flood; visually evaluated after 10 to 14 days
Method in brief: as §1

[18] = tested on: goosegrass (Eleusine indica); test: Test A postemergence, goosegrass; details: 10 days
From the text: as §2, §3

[19] = tested on: oat, wild (wild oat, Avena fatua); test: Test A preemergence, oat, wild; details: 0 to 100 scale, 10 days
From the text: as §2, §3

[20] = tested on: rice (Oryza sativa); test: Test B flooded paddy test, rice; details: 250 g ai/ha, Flood; visually evaluated after 10 to 14 days
Method in brief: as §1

[21] = tested on: kochia (Bassia scoparia); test: Test A postemergence, kochia; details: 10 days
Method in brief: as §4

[22] = tested on: kochia (Bassia scoparia); test: Test A preemergence, kochia; details: 0 to 100 scale, 10 days
Method in brief: as §4

[23] = tested on: oat, wild (wild oat, Avena fatua); test: Test A postemergence, oat, wild; details: 10 days
From the text: as §2, §3

[24] = tested on: wheat (Triticum aestivum); test: Test A preemergence, wheat; details: 125 g ai/ha, 0 to 100 scale, 10 days
[25] = tested on: wheat (Triticum aestivum); test: Test A postemergence, wheat; details: 10 days
Method in brief: as §4

[26] = tested on: soybean (Glycine max); test: Test A postemergence, soybean; details: 10 days
From the text: as §2, §3

[27] = tested on: corn (Zea mays); test: Test A postemergence, corn; details: 10 days
Method in brief: as §4

[28] = tested on: blackgrass (Alopecurus myosuroides); test: Test A postemergence, blackgrass; details: 10 days
Method in brief: as §4

[29] = 31 g ai/ha, postemergence, 0 to 100 scale (0 no effect, 100 complete control)
[30] = Postemergence, 125 g ai/ha, 0 to 100 scale

Cn1nc(Cl)c(OCOC(=O)C(C)(C)C)c(-c2c3ccccc3cc3ccccc23)c1=O [Compound 19]
10: Plant response rating, Ryegrass, Italian [3, 30] | Plant response rating, Foxtail, Giant ([11]; 31 g ai/ha) | Plant response rating, Blackgrass ([14]; 125 g ai/ha) | Plant response rating, Foxtail, Giant [16, 29] | Plant response rating, Goosegrass [18, 29] | Plant response rating, Goosegrass [18, 30] | Plant response rating, Oat, Wild [23, 29] | Plant response rating, Oat, Wild [23, 30] | Plant response rating, Corn [27, 29]
50: Plant response rating, Foxtail, Giant [16, 30]
100: Plant response rating, Pigweed, Palmer [2, 29] | Plant response rating, Pigweed, Palmer [2, 30] | Plant response rating, Galium [6, 29] | Plant response rating, Galium [6, 30] | Plant response rating, Pigweed, Palmer ([8]; 125 g ai/ha) | Plant response rating, Ragweed [9, 29] | Plant response rating, Ragweed [9, 30] | Plant response rating, Horseweed [10, 29] | Plant response rating, Ducksalad (0 to 100 scale where 0 is no effect and 100 is complete control) [17]
85: Plant response rating, Sedge, Umbrella (0 to 100 scale where 0 is no effect and 100 is complete control) [1]
20: Plant response rating, Corn [27, 30]
80: Plant response rating, Ryegrass, Italian ([4]; 125 g ai/ha) | Plant response rating, Ragweed ([5]; 31 g ai/ha) | Plant response rating, Ragweed ([5]; 125 g ai/ha) | Plant response rating, Kochia [21, 30] | Plant response rating, Kochia ([22]; 125 g ai/ha)
0: Plant response rating, Ryegrass, Italian [3, 29] | Plant response rating, Ryegrass, Italian ([4]; 31 g ai/ha) | Plant response rating, Soybean ([7]; 31 g ai/ha) | Plant response rating, Soybean ([7]; 125 g ai/ha) | Plant response rating, Corn ([13]; 31 g ai/ha) | Plant response rating, Corn ([13]; 125 g ai/ha) | Plant response rating, Blackgrass ([14]; 31 g ai/ha) | Plant response rating, Goosegrass ([15]; 31 g ai/ha) | Plant response rating, Oat, Wild ([19]; 31 g ai/ha) | Plant response rating, Oat, Wild ([19]; 125 g ai/ha) | Plant response rating, Rice (0 to 100 scale where 0 is no effect and 100 is complete control) [20] | Plant response rating, Kochia ([22]; 31 g ai/ha) | Plant response rating, Wheat [24] | Plant response rating, Wheat [25, 29] | Plant response rating, Wheat [25, 30] | Plant response rating, Soybean [26, 29] | Plant response rating, Blackgrass [28, 29] | Plant response rating, Blackgrass [28, 30]
35: Plant response rating, Barnyardgrass (0 to 100 scale where 0 is no effect and 100 is complete control) [12]
70: Plant response rating, Foxtail, Giant ([11]; 125 g ai/ha)
90: Plant response rating, Pigweed, Palmer ([8]; 31 g ai/ha) | Plant response rating, Horseweed [10, 30]
40: Plant response rating, Kochia [21, 29]
30: Plant response rating, Goosegrass ([15]; 125 g ai/ha) | Plant response rating, Soybean [26, 30]

Cc1cc(C)c2cc3ccccc3c(-c3c(OCOC(=O)C(C)(C)C)c(Cl)nn(C)c3=O)c2c1 [Compound 20]
30: Plant response rating, Pigweed, Palmer ([8]; 31 g ai/ha) | Plant response rating, Foxtail, Giant [16, 30] | Plant response rating, Goosegrass [18, 29] | Plant response rating, Goosegrass [18, 30]
25: Plant response rating, Barnyardgrass (0 to 100 scale where 0 is no effect and 100 is complete control) [12]
20: Plant response rating, Foxtail, Giant ([11]; 125 g ai/ha) | Plant response rating, Foxtail, Giant [16, 29] | Plant response rating, Corn [27, 30]
40: Plant response rating, Kochia [21, 29]
0: Plant response rating, Ryegrass, Italian [3, 29] | Plant response rating, Ryegrass, Italian [3, 30] | Plant response rating, Ryegrass, Italian ([4]; 31 g ai/ha) | Plant response rating, Ryegrass, Italian ([4]; 125 g ai/ha) | Plant response rating, Ragweed ([5]; 31 g ai/ha) | Plant response rating, Soybean ([7]; 31 g ai/ha) | Plant response rating, Soybean ([7]; 125 g ai/ha) | Plant response rating, Foxtail, Giant ([11]; 31 g ai/ha) | Plant response rating, Corn ([13]; 31 g ai/ha) | Plant response rating, Corn ([13]; 125 g ai/ha) | Plant response rating, Blackgrass ([14]; 31 g ai/ha) | Plant response rating, Goosegrass ([15]; 31 g ai/ha) | Plant response rating, Goosegrass ([15]; 125 g ai/ha) | Plant response rating, Oat, Wild ([19]; 31 g ai/ha) | Plant response rating, Oat, Wild ([19]; 125 g ai/ha) | Plant response rating, Rice (0 to 100 scale where 0 is no effect and 100 is complete control) [20] | Plant response rating, Kochia ([22]; 31 g ai/ha) | Plant response rating, Kochia ([22]; 125 g ai/ha) | Plant response rating, Oat, Wild [23, 29] | Plant response rating, Oat, Wild [23, 30] | Plant response rating, Wheat [24] | Plant response rating, Wheat [25, 29] | Plant response rating, Wheat [25, 30] | Plant response rating, Soybean [26, 29] | Plant response rating, Soybean [26, 30] | Plant response rating, Blackgrass [28, 29] | Plant response rating, Blackgrass [28, 30]
90: Plant response rating, Sedge, Umbrella (0 to 100 scale where 0 is no effect and 100 is complete control) [1] | Plant response rating, Horseweed [10, 29]
80: Plant response rating, Horseweed [10, 30]
70: Plant response rating, Ragweed [9, 29] | Plant response rating, Ragweed [9, 30]
100: Plant response rating, Ducksalad (0 to 100 scale where 0 is no effect and 100 is complete control) [17]
60: Plant response rating, Pigweed, Palmer ([8]; 125 g ai/ha) | Plant response rating, Kochia [21, 30]
50: Plant response rating, Pigweed, Palmer [2, 29] | Plant response rating, Pigweed, Palmer [2, 30] | Plant response rating, Ragweed ([5]; 125 g ai/ha) | Plant response rating, Galium [6, 29] | Plant response rating, Galium [6, 30]
10: Plant response rating, Blackgrass ([14]; 125 g ai/ha) | Plant response rating, Corn [27, 29]

— US12692238B2, “Substituted pyridazinone herbicides” (FMC CORPORATION, priority 2020, dated 2026)
